Measured values from EP4745139A1, “COMPOUND FOR TREATING AND PREVENTING RESPIRATORY SYNCYTIAL VIRUS INFECTION DISEASES” (CSPC Zhongqi Pharmaceutical Technology (Shijiazhuang) Co., …, priority 2023, dated 2025).
pIC50: −log10 of the molar value.

Experiments:
[1] = Pharmacokinetic experiment in mice after intragastric administration (plasma and lung tissue, LC/MS/MS); assay type: in vivo; conditions: ICR, mouse, intragastric administration at 20 mg/kg; for concentration at 6 h: lung, oral, read-out: Lung tissue drug concentration at 6 h; for half-life: plasma, po
Experimental: The compounds of the present invention for intragastric administration were dissolved in a suitable solvent to form a clear solution or suspension.
Administration mode and dosage: The compounds of the present invention were administered intragastrically at 10 mg/kg or 20 mg/kg.
Number of animals: 3 ICR mice per group for intragastric administration.
Sample collection: For the intragastric administration group, 100 µL of blood was collected (using pre-heparinized 100 µL Capillary Blood Collection Tubes) from the orbital vein of mice at 0.25 h, 0.5 h, 1 h, 2 h, 4 h, and 6 h after administration and placed in heparin sodium anticoagulant tubes. Mice plasma samples were obtained by centrifugation at 3000 g for 10 minutes within 2 hours. For the intragastric administration group, clean blood was collected at 6-hour time point and then lung tissues were collected.
Sample treatment: Plasma and lung tissue homogenates were subjected to protein precipitation with methanol at a certain ratio, and the supernatant was taken and diluted with 50% methanol-water at a certain ratio for sample loading.
Sample detection: The drug concentration in plasma was detected by the LC/MS/MS method, and the drug-time curve was plotted. Pharmacokinetic parameters (such as T1/2(h)/AUC0-t) were calculated by non-compartmental model statistical moments to describe the pharmacokinetic behavior of the compounds in mice after administration.
Data processing: Pharmacokinetic parameters were calculated by WinNonlin.

RSV = experiment: In vivo pharmacodynamic assay: mouse RSV infection model, lung viral load by plaque assay; parameters: species or system BALB/c mice; conditions: 50 mpk, BID, 5 days administration; lung tissue, Day 5
Experimental: The compound of the present invention was dissolved in a suitable solvent to form a clear solution or suspension for intragastric administration. • Animals: BALB/c mice, 6-weeks old, female. • Establishment of in vivo RSV infection model: Mice were inoculated intranasally with the virus on Day 0, with an inoculation dose of 3.5 × 10^6 p.f.u. per mouse. • Grouping of animals: Animals were divided into a vehicle control group and an administration group, with 5 animals in each group.
Administration mode and dosage: The compound of the present invention was administered intragastrically at 100 mg/kg or 50 mg/kg, or the vehicle used for the compound of the present invention was administered intragastrically. The administration volume was 10 mL/kg.
Experimental procedure: Mice were inoculated intranasally with the virus on Day 0 at an inoculation dose of 3.5 × 10^6 p.f.u. per mouse. Mice were continuously treated with the compound of the present invention from Day 0 to Day 4 for 5 days at a dose of 50 mg/kg, once daily, via intragastric administration, with an administration volume of 10 mL/kg; the first administration was conducted 1 hour before virus inoculation. Alternatively, mice were treated once with the compound of the present invention on Day 0 at a dose of 100 mg/kg, via intragastric administration, with an administration volume of 10 mL/kg; the first administration was conducted 1 hour before virus inoculation. On Day 5, mice were euthanized, and lung tissue samples were collected. Animals were observed daily from Day 0 to Day 5, and the body weight, health status, and survival status were recorded.
Sample processing: After lungs were collected, they were quickly frozen in the HBSS* solution at a 10-fold weight-to-volume ratio (w:v (g:mL) = 1:10), and stored in a -80°C refrigerator for plaque assay to detect viral load.
Sample detection: Viral load in lung tissues was detected by plaque assay. […]

RSV strain A2 = experiment: Antiviral detection test against RSV strain A2 based on ELISA method (Hep-2 cells); assay type: cell-based, Respiratory Syncytial Virus; conditions: for pIC50: human respiratory syncytial virus, RSV A2 virus strain, Hep-2 cells, ELISA OD450; for AK0529 IC50 / IC50 of the compounds of the present invention: ratio of IC50 values against RSV A2 virus strain, control compound AK0529
Experimental: Test Example 1: Antiviral detection test of small molecules against RSV strain A2 based on ELISA method
• Source of cell line: Nanjing Kebai Biotechnology Co., Ltd. • Cell type: human laryngeal carcinoma epithelial cells Hep-2
• 96-well culture plate (Cat.No. 3610, Corning Costar); • Fetal bovine serum (Cat.No. 10099-141, GIBCO); • DMEM medium (Cat.No. 11995500BT, GIBCO); • Envision 2104 microplate reader.
• 1. Day 1: The Hep-2 cells were seeded into a 96-well plate at a density of 1×10^4 cells/well; • 2. Day 2: • A. Compound dilution: The compound in the first well was diluted to 9 µM, and 3-fold gradient dilution was performed, with a total of 10 gradients; • B. The Hep-2 cell plate prepared on Day 1 was taken out from the incubator, the supernatant was discarded, and 100 PFU/well/50 µL of the RSV A2 virus was added to each well. The plate was stood at 37°C in a 5% CO2 incubator for 2 hours, the supernatant was aspirated and discarded, and then 100 µL of the gradient-diluted compound or DMEM maintenance medium containing 2% FBS was added to each well; • 3. Day 5: • A. Add fixative: The gradient-diluted compound or medium was discarded from the wells, and 100 µL/well of fixative (4% paraformaldehyde) was added. The plate was stood at room temperature for 10 minutes, and then was washed once with 250 µL PBS; • B. 100 µL/well of a blocking solution was added, and the plate was incubated at 37°C in a 5% CO2 incubator for 30 minutes; • C. After incubation, the detection antibody (Anti RSV Fpro) was added at 0.3 µg/50 µL/well (6 µg/mL), and the plate was incubated at 37°C in a 5% CO2 incubator for 1 hour; • D. After incubation, the HRP secondary antibody was added (diluted 10,000-fold with 0.2% BSA), and the plate was incubated at 37°C in a 5% CO2 incubator for 1 hour; • E. After incubation, the wells were washed for 4 times with PBST, 250 µL/well, each washing was allowed to stand for 5 minutes, and the liquid in the wells was shaken off after completion of the washing; • F. 100 µL/well of a development solution was added, the plate was incubated at room temperature in the dark for 20 minutes, and 50 µL/well of a reaction termination solution was added. The plate was tapped gently to mix the solutions, and the absorbance at 450 nm was measured using the microplate reader. • 4. Data analysis • Inhibition rate of the compound against the virus = 100% - (SC - CC)/(VC - CC) × 100% • SC: OD450 value of the sample (cells + test compound + virus) • CC: OD450 value of the normal growing cell control (cells) • VC: OD450 value of the virus growth control (cells + virus)
The software Graphpad Prism 6 was used, and the calculation formula XY-analysis/Nonlinear regression (curve fit)/Dose response-Inhibition/log (inhibition) vs. response-Variable slope (four parameters) was adopted to fit the IC50 curve and calculate the IC50 value.

Cc1ccc2nc(N3CCS(=O)(=O)c4ccccc4C3)nc(NCC3(N)COC3)c2c1 [AK0529, reference compound]
concentration at 6 h [1]: 1210 ng/g | half-life [1]: 1.55 h | log (RSV Viral Load) Mean (RSV): 3.06

Cc1ccc2nc(N3CCS(=O)(=NC4CC4)c4ccccc4C3)nc(N3CC4C(N)C4C3)c2c1 (stereo not drawn) [Example 4-8, 4-(4-(6-amino-3-azabicyclo[3.1.0]hexan-3-yl)-6-methylquinazolin-2-yl)-1-(cyclopropylimino)-2,3,4,5-tetrahydro-benzo[f][1,4]thiazepine-1-oxide]
concentration at 6 h [1]: 25300 ng/g | half-life [1]: 10.8 h

Cc1ccc2nc(N3CCS(=O)(=NC4CC4)c4ccccc4C3)nc(N3CC(CN)C3)c2c1 (stereo not drawn) [Example 4-9, 4-(4-(3-(aminomethyl)azetidin-1-yl)-6-methylquinazolin-2-yl)-1-(cyclopropylimino)-2,3,4,5-tetrahydro-benzo[f][1,4]thiazepine-1-oxide]
concentration at 6 h [1]: 5920 ng/g | half-life [1]: 6.21 h | pIC50 (RSV strain A2): > 8.00

Cc1ccc2nc(N3CCS(=O)(=NC4CC4)c4ccccc4C3)nc(N3CC[C@@H](N)C3)c2c1 (stereo partly drawn) [Example 4-12]
concentration at 6 h [1]: 29700 ng/g | half-life [1]: 6.44 h | pIC50 (RSV strain A2): > 8.00

Cc1ccc2nc(N3CCS(=O)(=NC4CC4)c4ccccc4C3)nc(NCC3(N)COC3)c2c1C (stereo not drawn) [Example 4-15, 4-(4-(((3-aminooxetan-3-yl)methyl)amino)-5,6-dimethylquinazolin-2-yl)-1-(cyclopropylimino)-2,3,4,5-tetrahydro-benzo[f][1,4]thiazepine-1-oxide]
concentration at 6 h [1]: 5130 ng/g | half-life [1]: 1.61 h

NC1CN(c2nc(N3CCS(=O)(=NC4CC4)c4ccccc4C3)nc3ccc(C(F)F)cc23)C1 (stereo not drawn) [Example 4-17, 4-(4-(3-aminoazetidin-1-yl)-6-(difluoromethyl)quinazolin-2-yl)-1-(cyclopropylimino)-2,3,4,5-tetrahydro-benzo[f][1,4]thiazepine-1-oxide]
concentration at 6 h [1]: 75800 ng/g | half-life [1]: 5.29 h | pIC50 (RSV strain A2): > 8.00 | AK0529 IC50 / IC50 of the compounds of the present invention (RSV strain A2): ratio ≥20

Cc1ccc2nc(N3CCS(=O)(=NC4CC4)c4ccccc4C3)nc(N[C@H]3CNC[C@@H]3F)c2c1 (stereo partly drawn) [Example 4-24, 1-(cyclopropylimino)-4-(4-(((3S,4S)-4-fluoropyrrolidin-3-yl)amino)-6-methylquinazolin-2-yl)-2,3,4,5-tetrahydrobenzo[f][1,4]thiazepine-1-oxide]
concentration at 6 h [1]: 15400 ng/g | half-life [1]: 4.48 h | pIC50 (RSV strain A2): > 8.00 | AK0529 IC50 / IC50 of the compounds of the present invention (RSV strain A2): ratio ≥20

Cc1ccc2nc(N3CCS(=O)(=NC4CCOC4)c4ccccc4C3)nc(N3CC[C@@H](N)C3)c2c1 (stereo partly drawn) [Example 4-43]
concentration at 6 h [1]: 19200 ng/g | half-life [1]: 2.33 h | pIC50 (RSV strain A2): > 8.00

N[C@H]1CCN(c2nc(N3CCS(=O)(=NC4CC4)c4ccccc4C3)nc3ccc(C(F)F)cc23)C1 (stereo partly drawn) [Example 4-62, 4-(4-((S)-3-aminopyrrolidin-1-yl)-6-(difluoromethyl)quinazolin-2-yl)-1-(cyclopropylimino)-2,3,4,5-tetrahydro-benzo[f][1,4]thiazepine-1-oxide]
concentration at 6 h [1]: 53100 ng/g | pIC50 (RSV strain A2): > 8.00

Cc1ccc2nc(N3CCS(=O)(=NCCS(C)(=O)=O)c4ccccc4C3)nc(N3CC[C@H](N)C3)c2c1 (stereo partly drawn) [Example 4-65]
pIC50 (RSV strain A2): > 8.00

N[C@H]1CCN(c2nc(N3CCS(=O)(=NCCCO)c4ccccc4C3)nc3ccc(C(F)F)cc23)C1 (stereo partly drawn) [Example 4-66]
pIC50 (RSV strain A2): > 8.00

Cc1ccc2nc(N3CCS(=O)(=NC4CCOC4)c4ccccc4C3)nc(N3CC[C@H](N)C3)c2c1 (stereo partly drawn) [Example 4-67]
concentration at 6 h [1]: 8220 ng/g | half-life [1]: 2.16 h | pIC50 (RSV strain A2): > 8.00

COCC(C)N=S1(=O)CCN(c2nc(N3CC[C@H](N)C3)c3cc(C)ccc3n2)Cc2ccccc21 (stereo partly drawn) [Example 4-69]
concentration at 6 h [1]: 6010 ng/g | half-life [1]: 2.28 h | pIC50 (RSV strain A2): > 8.00

Cc1ccc2nc(N3CCS(=O)(=NCC4CCCO4)c4ccccc4C3)nc(N3CC[C@H](N)C3)c2c1 (stereo partly drawn) [Example 4-70]
pIC50 (RSV strain A2): > 8.00

COCCCN=S1(=O)CCN(c2nc(N3CC[C@H](N)C3)c3cc(C)ccc3n2)Cc2ccccc21 (stereo partly drawn) [Example 4-71]
pIC50 (RSV strain A2): > 8.00

Cc1ccc2nc(N3CCS(=O)(=NCC4CCOC4)c4ccccc4C3)nc(N3CC[C@H](N)C3)c2c1 (stereo partly drawn) [Example 4-72]
pIC50 (RSV strain A2): > 8.00

COCCCN=S1(=O)CCN(c2nc(N3CC[C@@H](N)C3)c3cc(C)ccc3n2)Cc2ccccc21 (stereo partly drawn) [Example 4-73]
pIC50 (RSV strain A2): > 8.00

N[C@H]1CCN(c2nc(N3CCS(=O)(=NCC4CCO4)c4ccccc4C3)nc3ccc(C(F)F)cc23)C1 (stereo partly drawn) [Example 4-74, 4-(4-((S)-3-aminopyrrolidin-1-yl)-6-(difluoromethyl)quinazolin-2-yl)-1-((oxetan-2-ylmethyl)imino)-2,3,4,5-tetrahydro-benzo[f][1,4]thiazepine-1-oxide]
concentration at 6 h [1]: 7170 ng/g | half-life [1]: 2.49 h | pIC50 (RSV strain A2): > 8.00 | AK0529 IC50 / IC50 of the compounds of the present invention (RSV strain A2): ratio ≥20

Cc1ccc2nc(N3CCS(=O)(=NC4CC4)c4ccccc4C3)nc(N3CC(N)C3)c2c1 (stereo not drawn) [Example 4-76, 4-(4-(3-aminoazetidin-1-yl)-6-methylquinazolin-2-yl)-1-(cyclopropylimino)-2,3,4,5-tetrahydrobenzo[f][1,4]thiazepine-1-oxide]
concentration at 6 h [1]: 28800 ng/g | pIC50 (RSV strain A2): > 8.00 | AK0529 IC50 / IC50 of the compounds of the present invention (RSV strain A2): ratio ≥20
